Among the data in patent publication US20230127944A1, “BROAD-SPECTRUM CARBAPENEMS” (priority 2019, published 2023) are MIC values, retold here.

Common to all, as to format: cell-based
One assay deals with S. aureus USA 300. Kind of assay: broth microdilution MIC assay, S. aureus USA300. As to conditions: Staphylococcus aureus; S. aureus USA300 (MRSA); read-out: MIC, S. aureus USA300. In short, it runs like this:
(§1)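 Growth inhibition was measured by CLSI-based broth microdilution. Log-phase cultures in Mueller-Hinton broth with divalent cations were seeded at 5×10^5 CFU/mL into 2-fold serial compound dilutions and incubated 16-20 hours at 37° C before the MIC was scored by eye.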
A general note: Broth dilution looks for growth in wells or tubes with falling amounts of substance.

Assay [1] has as its system E. coli ATCC 25922 (wild-type/QC strain). Kind of assay: broth microdilution MIC assay, E. coli 25922. Conditions: Escherichia coli, ATCC25922; read-out: MIC, E. coli 25922. In short, it runs like this:
as §1

Assay [2] relates to P. aeruginosa ΔmexAB-OprM (an efflux pump knockout). Put plainly: broth microdilution MIC assay, P. aeruginosa ΔmexAB-OprM. Conditions: Pseudomonas aeruginosa, read-out: MIC, P. aeruginosa ΔmexAB-OprM. In short, it runs like this:
as §1

Assay [3] relates to S. aureus ATCC 33591 (methicillin-resistant). Put plainly: broth microdilution MIC assay, S. aureus 33591. Conditions: Staphylococcus aureus, ATCC33591; S. aureus 33591, methicillin-resistant; read-out: MIC, S. aureus 33591. In short, it runs like this: as §1
In assay [4] the test system is P. aeruginosa ATCC 27853 (wild-type/QC strain). Kind of assay: broth microdilution MIC assay, P. aeruginosa 27853. As to conditions: Pseudomonas aeruginosa, ATCC27853; read-out: MIC, P. aeruginosa 27853. The essentials: as §1
Another assay has as its system S. aureus USA 600. Put plainly: broth microdilution MIC assay, S. aureus USA600. As to conditions: Staphylococcus aureus; S. aureus USA600 (MRSA); read-out: MIC, S. aureus USA600. The essentials:
as §1

The subject of assay [5] is P. aeruginosa 35151 (hyper-permeable strain). Put plainly: broth microdilution MIC assay, P. aeruginosa 35151. As to conditions: Pseudomonas aeruginosa, read-out: MIC, P. aeruginosa 35151. The essentials:
as §1

The test system of the next assay is P. aeruginosa Paeβ-17. Kind of assay: broth microdilution MIC assay, P. aeruginosa Paeβ-17. As to conditions: Pseudomonas aeruginosa, read-out: MIC, P. aeruginosa Paeβ-17. The essentials: as §1

One may read the MIC as the least concentration at which growth counts as inhibited.

In brackets after ≈: the same amount, converted by molar mass. Where only a bound is given, the exact number is not on record here.

Consider `C[C@@H](O)[C@H]1C(=O)N2C(C(=O)O)=C(SC3CN(C4CCNC4)C3)[C@H](C)[C@H]12` (stereo partly drawn) [Example 37, (4R,5S,6S)-6-((R)-1-hydroxyethyl)-4-methyl-7-oxo-3-((1-(pyrrolidin-3-yl)azetidin-3-yl)thio)-1-azabicyclo[3.2.0]hept-2-ene-2-carboxylic acid], for which the MIC with S. aureus USA 300 is 1 to 4 µg/mL (≈ 2.72 to 10.9 µM); in assay [1] it was below 1 µg/mL; in assay [2], 1 to 4 µg/mL (≈ 2.72 to 10.9 µM); in assay [3], 8 to 32 µg/mL (≈ 21.8 to 87.1 µM); in assay [4], 8 to 32 µg/mL (≈ 21.8 to 87.1 µM); in the assay on S. aureus USA 600 it was 1 to 4 µg/mL (≈ 2.72 to 10.9 µM). For the same compound, the minimal inhibitory concentration (MIC) in assay [5] was below 1 µg/mL; in the assay on P. aeruginosa Paeβ-17, 8 to 32 µg/mL (≈ 21.8 to 87.1 µM).

Regarding `C[C@@H](O)[C@H]1C(=O)N2C(C(=O)O)=C(SC3CN(C4CCN(C)CC4)C3)[C@H](C)[C@H]12` [Example 42, (4R,5S,6S)-6-((R)-1-hydroxyethyl)-4-methyl-3-((1-(1-methylpiperidin-4-yl)azetidin-3-yl)thio)-7-oxo-1-azabicyclo[3.2.0]hept-2-ene-2-carboxylic acid], the MIC was 1 to 4 µg/mL (≈ 2.53 to 10.1 µM) with S. aureus USA 300; below 1 µg/mL in assay [1]; 8 to 32 µg/mL (≈ 20.2 to 80.9 µM) in assay [2]; 8 to 32 µg/mL (≈ 20.2 to 80.9 µM) in assay [3]; 8 to 32 µg/mL (≈ 20.2 to 80.9 µM) in assay [4]; 1 to 4 µg/mL (≈ 2.53 to 10.1 µM) in the assay with S. aureus USA 600. The MIC was below 1 µg/mL in assay [5] and 8 to 32 µg/mL (≈ 20.2 to 80.9 µM) with P. aeruginosa Paeβ-17.

As for `C[C@@H](O)[C@H]1C(=O)N2C(C(=O)O)=C(S[C@H]3C[C@H](N[C@@H]4CC[C@H](N)C4)C3)[C@H](C)[C@H]12` [Example 70, (4R,5S,6S)-3-(((1R,3R)-3-(((1R,3S)-3-aminocyclopentyl)amino)cyclobutyl)thio)-6-((R)-1-hydroxyethyl)-4-methyl-7-oxo-1-azabicyclo[3.2.0]hept-2-ene-2-carboxylic acid], the MIC is 8 to 32 µg/mL (≈ 20.2 to 80.9 µM) in the assay on S. aureus USA 300; below 1 µg/mL in assay [1]; 1 to 4 µg/mL (≈ 2.53 to 10.1 µM) in assay [2]; 8 to 32 µg/mL (≈ 20.2 to 80.9 µM) in assay [3]; 8 to 32 µg/mL (≈ 20.2 to 80.9 µM) in assay [4]; 1 to 4 µg/mL (≈ 2.53 to 10.1 µM) in the assay with S. aureus USA 600. The values for the MIC (in assay [5]; with P. aeruginosa Paeβ-17) were below 1 µg/mL and 8 to 32 µg/mL (≈ 20.2 to 80.9 µM), respectively.

For the compound `C[C@@H](O)[C@H]1C(=O)N2C(C(=O)O)=C(SC3CN([C@@H]4CC[C@H](NC(=N)N)C4)C3)[C@H](C)[C@H]12` [Example 12, (4R,5S,6S)-3-((1-((1R,3S)-3-guanidinocyclopentyl)azetidin-3-yl)thio)-6-((R)-1-hydroxyethyl)-4-methyl-7-oxo-1-azabicyclo[3.2.0]hept-2-ene-2-carboxylic acid], the MIC in the assay on S. aureus USA 300 was 1 to 4 µg/mL (≈ 2.36 to 9.44 µM); in assay [1] it was below 1 µg/mL; in assay [2] it was 1 to 4 µg/mL (≈ 2.36 to 9.44 µM); in assay [3], 1 to 4 µg/mL (≈ 2.36 to 9.44 µM); in assay [4], 1 to 4 µg/mL (≈ 2.36 to 9.44 µM); in the assay with S. aureus USA 600 it was 1 to 4 µg/mL (≈ 2.36 to 9.44 µM). For the same compound, the figures for the MIC (in assay [5]; in the assay with P. aeruginosa Paeβ-17) were below 1 µg/mL and 8 to 32 µg/mL (≈ 18.9 to 75.6 µM), respectively.

Consider `C[C@@H](O)[C@H]1C(=O)N2C(C(=O)O)=C(S[C@H]3C[C@H](N[C@H]4CC[C@@H](NC(=N)N)CC4)C3)[C@H](C)[C@H]12` [Example 69, (4R,5S,6S)-3-(((1R,3R)-3-(((1S,4S)-4-guanidinocyclohexyl)amino)cyclobutyl)thio)-6-((R)-1-hydroxyethyl)-4-methyl-7-oxo-1-azabicyclo[3.2.0]hept-2-ene-2-carboxylic acid], for which the MIC in the assay with S. aureus USA 300 was 1 to 4 µg/mL (≈ 2.21 to 8.86 µM); in assay [1] it was below 1 µg/mL; in assay [2], 1 to 4 µg/mL (≈ 2.21 to 8.86 µM); in assay [3] it was 8 to 32 µg/mL (≈ 17.7 to 70.9 µM); in assay [4], 8 to 32 µg/mL (≈ 17.7 to 70.9 µM); in the assay with S. aureus USA 600 it was 1 to 4 µg/mL (≈ 2.21 to 8.86 µM). Further, the MIC in assay [5] is below 1 µg/mL; in the assay on P. aeruginosa Paeβ-17, 8 to 32 µg/mL (≈ 17.7 to 70.9 µM).

As to `C[C@@H](O)[C@H]1C(=O)N2C(C(=O)O)=C(SC3CN(C[C@H]4CCCN4)C3)[C@H](C)[C@H]12` [Example 32, (4R,5S,6S)-6-((R)-1-hydroxyethyl)-4-methyl-7-oxo-3-((1-(((R)-pyrrolidin-2-yl)methyl)azetidin-3-yl)thio)-1-azabicyclo[3.2.0]hept-2-ene-2-carboxylic acid], the MIC was 1 to 4 µg/mL (≈ 2.62 to 10.5 µM) in the assay with S. aureus USA 300; below 1 µg/mL in assay [1]; 1 to 4 µg/mL (≈ 2.62 to 10.5 µM) in assay [2]; 8 to 32 µg/mL (≈ 21 to 83.9 µM) in assay [3]; 8 to 32 µg/mL (≈ 21 to 83.9 µM) in assay [4]; 1 to 4 µg/mL (≈ 2.62 to 10.5 µM) in the assay on S. aureus USA 600. Moreover, the MIC in assay [5] is below 1 µg/mL; with P. aeruginosa Paeβ-17 it was 8 to 32 µg/mL (≈ 21 to 83.9 µM).
